In US10918645B2 (LIFEARC, priority 2016, dated 2021):

Legend:
Format in all cases: biochemical
Conditions in all cases: 1 μM inhibitor concentration
[1] = target: PDK1 (Homo sapiens (Human), UniProt O15530); assay: PDK1 kinase selectivity assay
Experimental: PDK1 (5-20 mU diluted in 50 mM Tris pH 7.5, 0.05% b-mercaptoethanol, 1 mg/ml BSA) is assayed against PDKtide ([…]-[…]) in a final volume of 25.5 μl containing 50 mM Tris pH 7.5, 0.05% b-mercaptoethanol, 100 μM substrate peptide, 10 mM magnesium acetate and 0.02 mM [33P-g-ATP](50-1000 cpm/pmole) and incubated for 30 min at room temperature Assays are stopped by addition of 5 μl of 0.5 M (3%) orthophosphoric acid and then harvested onto P81 Unifilter plates with a wash buffer of 50 mM orthophosphoric acid.

[2] = target: PLK1 (Homo sapiens (Human), UniProt P53350); assay: PLK1 kinase selectivity assay
Chain of PLK1 (P53350 whole entry, species assumed): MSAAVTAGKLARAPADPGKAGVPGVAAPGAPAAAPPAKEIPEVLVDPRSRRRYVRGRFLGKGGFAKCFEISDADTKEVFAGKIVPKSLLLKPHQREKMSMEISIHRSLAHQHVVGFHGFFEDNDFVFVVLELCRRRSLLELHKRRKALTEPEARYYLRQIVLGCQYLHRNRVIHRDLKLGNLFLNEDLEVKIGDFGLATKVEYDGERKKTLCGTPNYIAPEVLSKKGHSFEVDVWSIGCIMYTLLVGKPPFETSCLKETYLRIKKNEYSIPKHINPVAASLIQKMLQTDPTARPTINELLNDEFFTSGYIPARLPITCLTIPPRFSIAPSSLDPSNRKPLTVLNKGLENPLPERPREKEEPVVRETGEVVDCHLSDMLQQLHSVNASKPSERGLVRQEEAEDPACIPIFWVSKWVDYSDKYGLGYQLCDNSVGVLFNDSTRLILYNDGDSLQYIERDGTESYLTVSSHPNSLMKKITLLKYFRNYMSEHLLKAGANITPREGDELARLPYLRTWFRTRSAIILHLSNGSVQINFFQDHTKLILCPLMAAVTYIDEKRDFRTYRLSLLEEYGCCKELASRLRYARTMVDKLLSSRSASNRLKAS
Experimental: PLK1 (5-20 mU diluted in 50 mM Tris pH 7.5, 0.1 mM EGTA, 0.1% b-mercaptoethanol, 1 mg/ml BSA, 100 μM Vanadate) is assayed against a substrate peptide ([…]) in a final volume of 25.5 μl containing 50 mM Tris pH 7.5, 0.05% b-mercaptoethanol, 10 μM Vanadate, 300 μM substrate peptide, 10 mM magnesium acetate and 0.005 mM [33P-g-ATP] (50-1000 cpm/pmole) and incubated for 30 min at room temperature. Assays are stopped by addition of 5 μl of 0.5 M (3%) orthophosphoric acid and then harvested onto P81 Unifilter plates with a wash buffer of 50 mM orthophosphoric acid.
PLK1 (5-20 mU diluted in 50 mM Tris pH 7.5, 0.1 mM EGTA, 0.1% b-mercaptoethanol, 1 mg/ml BSA, 100 µM Vanadate) is assayed against a substrate peptide ([…]) in a final volume of 25.5 μl containing 50 mM Tris pH 7.5, 0.05% b-mercaptoethanol, […], 300 μM substrate peptide, 10 mM magnesium acetate and 0.005 mM [33P-g-ATP] (50-1000 cpm/pmole) and incubated for 30 min at room temperature. Assays are stopped by addition of 5 μl of 0.5 M (3%) orthophosphoric acid and then harvested onto P81 Unifilter plates with a wash buffer of 50 mM orthophosphoric acid.

[3] = target: ERK1 (Homo sapiens (Human), UniProt P27361); assay: ERK1 kinase selectivity assay
Chain of ERK1 (P27361 whole entry, species assumed): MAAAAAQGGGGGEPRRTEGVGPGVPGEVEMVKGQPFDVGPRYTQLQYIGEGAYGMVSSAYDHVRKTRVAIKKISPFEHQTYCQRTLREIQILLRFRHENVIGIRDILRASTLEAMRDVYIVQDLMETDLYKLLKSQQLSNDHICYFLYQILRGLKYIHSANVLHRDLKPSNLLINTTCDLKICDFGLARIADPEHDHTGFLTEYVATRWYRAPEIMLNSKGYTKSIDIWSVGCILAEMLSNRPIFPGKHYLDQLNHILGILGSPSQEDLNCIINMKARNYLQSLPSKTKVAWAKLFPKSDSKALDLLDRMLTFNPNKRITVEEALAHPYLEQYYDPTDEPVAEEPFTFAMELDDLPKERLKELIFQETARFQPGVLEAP
Experimental: 5-20 mU of ERK1 (diluted in 50 mM Tris (pH 7.5), 0.1 mM EGTA, 1 mg/ml BSA, 0.1%, b-Mercaptoethanol) is assayed against MBP in a final volume of 25.5 μl containing 50 mM Tris (pH 7.5), 0.1 mM EGTA, 0.1%, b-Mercaptoethanol, 0.33 mg/ml MBP, 10 mM magnesium acetate and 0.005 mM [33P-g-ATP](500-1000 cpm/pmole) and incubated for 30 mins at room temperature. Assays are stopped by addition of 5 μl of 0.5M (3%) orthophosphoric acid. Assays are harvested onto P81 Unifilter plates using a wash buffer of 50 mM orthophosphoric acid.

[4] = target: IRAK4 (Homo sapiens (Human), UniProt Q9NWZ3); assay: IRAK4 kinase selectivity assay
Chain of IRAK4 (Q9NWZ3 whole entry, species assumed): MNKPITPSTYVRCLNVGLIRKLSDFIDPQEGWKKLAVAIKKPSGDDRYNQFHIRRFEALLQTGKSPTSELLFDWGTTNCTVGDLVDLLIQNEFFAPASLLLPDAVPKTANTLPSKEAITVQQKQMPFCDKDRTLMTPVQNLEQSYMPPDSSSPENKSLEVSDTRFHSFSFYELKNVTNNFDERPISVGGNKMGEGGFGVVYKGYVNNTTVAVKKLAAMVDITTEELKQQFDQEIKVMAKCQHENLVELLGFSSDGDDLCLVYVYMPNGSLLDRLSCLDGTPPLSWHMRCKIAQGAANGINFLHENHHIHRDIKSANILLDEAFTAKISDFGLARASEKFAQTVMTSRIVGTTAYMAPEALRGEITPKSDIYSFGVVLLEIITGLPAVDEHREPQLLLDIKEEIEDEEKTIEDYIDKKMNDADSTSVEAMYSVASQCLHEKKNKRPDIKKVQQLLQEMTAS
Experimental: IRAK4 (5-20 mU diluted in 50 mM Tris pH 7.5, 0.1 mM EGTA, 0.1% 0-mercaptoethanol, 1 mg/ml BSA) is assayed against MBP in a final volume of 25.5 μl containing 50 mM Tris pH 7.5, 0.1 mM EGTA, 0.33 mg/ml MBP, 10 mM magnesium acetate and 0.02 mM [33P-γ-ATP] (50-1000 cpm/pmole) and incubated for 30 min at room temperature. Assays are stopped by addition of 5 μl of 0.5 M (3%) orthophosphoric acid and then harvested onto P81 Unifilter plates with a wash buffer of 50 mM orthophosphoric acid.

[5] = target: PKD1 (Homo sapiens (Human), UniProt Q15139); assay: PKD1 kinase selectivity assay
Chain of PKD1 (Q15139 whole entry): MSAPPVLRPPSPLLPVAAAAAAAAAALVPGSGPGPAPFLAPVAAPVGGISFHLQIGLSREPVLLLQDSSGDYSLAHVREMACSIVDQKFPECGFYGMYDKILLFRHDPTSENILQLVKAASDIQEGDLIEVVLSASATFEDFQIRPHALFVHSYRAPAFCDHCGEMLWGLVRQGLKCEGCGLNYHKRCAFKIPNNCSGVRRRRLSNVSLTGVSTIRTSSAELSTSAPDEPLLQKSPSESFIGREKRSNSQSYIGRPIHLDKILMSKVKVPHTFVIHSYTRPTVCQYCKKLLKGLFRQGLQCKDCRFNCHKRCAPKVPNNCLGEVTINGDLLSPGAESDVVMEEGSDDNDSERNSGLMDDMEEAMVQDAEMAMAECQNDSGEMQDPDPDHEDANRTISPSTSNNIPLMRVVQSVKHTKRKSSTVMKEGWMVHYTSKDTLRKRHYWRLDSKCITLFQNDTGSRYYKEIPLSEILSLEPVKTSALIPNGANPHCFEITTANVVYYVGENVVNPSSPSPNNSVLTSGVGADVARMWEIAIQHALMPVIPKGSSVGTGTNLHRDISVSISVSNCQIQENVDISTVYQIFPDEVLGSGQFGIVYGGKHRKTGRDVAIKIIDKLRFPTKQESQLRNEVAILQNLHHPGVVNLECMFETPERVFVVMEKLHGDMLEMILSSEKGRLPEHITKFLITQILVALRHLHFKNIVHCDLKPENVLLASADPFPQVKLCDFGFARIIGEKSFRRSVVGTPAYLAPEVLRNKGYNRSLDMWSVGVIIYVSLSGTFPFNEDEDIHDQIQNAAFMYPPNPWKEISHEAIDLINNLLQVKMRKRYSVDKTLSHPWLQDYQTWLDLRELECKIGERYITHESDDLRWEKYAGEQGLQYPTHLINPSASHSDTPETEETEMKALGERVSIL
Experimental: PKD1 (5-20 mU diluted in 50 mM Tris pH 7.5, 0.1 mM EGTA, 0.1% b-mercaptoethanol, 1 mg/ml BSA) is assayed substrate peptide ([…]) in a final volume of 25.5 μl containing 50 mM Tris pH 7.5, 0.05% b-mercaptoethanol, 30 μM substrate peptide, 10 mM magnesium acetate and 0.05 mM [33P-g-ATP] (50-1000 cpm/pmole) and incubated for 30 min at room temperature. Assays are stopped by addition of 5 μl of 0.5 M (3%) orthophosphoric acid and then harvested onto P81 Unifilter plates with a wash buffer of 50 mM orthophosphoric acid.

[6] = target: BRSK2 (Homo sapiens (Human), UniProt Q8IWQ3); assay: BRSK2 kinase selectivity assay
Chain of BRSK2 (Q8IWQ3 whole entry, species assumed): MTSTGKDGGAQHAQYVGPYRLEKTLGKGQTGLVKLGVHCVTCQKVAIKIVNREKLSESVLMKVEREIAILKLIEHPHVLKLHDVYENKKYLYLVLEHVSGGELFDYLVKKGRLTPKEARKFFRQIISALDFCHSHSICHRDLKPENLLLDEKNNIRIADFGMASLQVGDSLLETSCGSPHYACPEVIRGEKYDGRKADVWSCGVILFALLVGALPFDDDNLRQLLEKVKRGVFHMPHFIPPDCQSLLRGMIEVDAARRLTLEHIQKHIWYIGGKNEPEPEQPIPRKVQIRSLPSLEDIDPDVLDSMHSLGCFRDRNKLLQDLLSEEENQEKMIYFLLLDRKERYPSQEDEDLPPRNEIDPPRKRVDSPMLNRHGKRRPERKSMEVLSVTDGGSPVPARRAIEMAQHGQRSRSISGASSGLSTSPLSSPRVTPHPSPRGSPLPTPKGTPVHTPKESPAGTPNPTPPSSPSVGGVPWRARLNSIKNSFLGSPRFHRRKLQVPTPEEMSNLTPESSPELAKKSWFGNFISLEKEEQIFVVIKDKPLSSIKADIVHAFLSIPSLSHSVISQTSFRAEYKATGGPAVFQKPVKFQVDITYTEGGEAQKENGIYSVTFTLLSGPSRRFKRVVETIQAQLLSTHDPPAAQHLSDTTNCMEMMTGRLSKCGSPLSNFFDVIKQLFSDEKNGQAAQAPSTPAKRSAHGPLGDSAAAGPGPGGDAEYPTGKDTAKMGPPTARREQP
Experimental: BRSK2 (5-20 mU diluted in 50 mM Tris pH 7.5, 0.1 mM EGTA, 0.1% b-mercaptoethanol, 1 mg/ml BSA) is assayed against a substrate peptide ([…]) in a final volume of 25.5 μl containing 50 mM Tris pH 7.5, 0.05% b-mercaptoethanol, 300 μM substrate peptide, 10 mM magnesium acetate and 0.05 mM [33P-g-ATP] (50-1000 cpm/pmole) and incubated for 30 min at room temperature. Assays are stopped by addition of 5 μl of 0.5 M (3%) orthophosphoric acid and then harvested onto P81 Unifilter plates with a wash buffer of 50 mM orthophosphoric acid.

[7] = target: IGF-1R (Homo sapiens (Human), UniProt P08069); assay: IGF-1R kinase selectivity assay
Chain of IGF-1R (P08069 31-1367, species assumed): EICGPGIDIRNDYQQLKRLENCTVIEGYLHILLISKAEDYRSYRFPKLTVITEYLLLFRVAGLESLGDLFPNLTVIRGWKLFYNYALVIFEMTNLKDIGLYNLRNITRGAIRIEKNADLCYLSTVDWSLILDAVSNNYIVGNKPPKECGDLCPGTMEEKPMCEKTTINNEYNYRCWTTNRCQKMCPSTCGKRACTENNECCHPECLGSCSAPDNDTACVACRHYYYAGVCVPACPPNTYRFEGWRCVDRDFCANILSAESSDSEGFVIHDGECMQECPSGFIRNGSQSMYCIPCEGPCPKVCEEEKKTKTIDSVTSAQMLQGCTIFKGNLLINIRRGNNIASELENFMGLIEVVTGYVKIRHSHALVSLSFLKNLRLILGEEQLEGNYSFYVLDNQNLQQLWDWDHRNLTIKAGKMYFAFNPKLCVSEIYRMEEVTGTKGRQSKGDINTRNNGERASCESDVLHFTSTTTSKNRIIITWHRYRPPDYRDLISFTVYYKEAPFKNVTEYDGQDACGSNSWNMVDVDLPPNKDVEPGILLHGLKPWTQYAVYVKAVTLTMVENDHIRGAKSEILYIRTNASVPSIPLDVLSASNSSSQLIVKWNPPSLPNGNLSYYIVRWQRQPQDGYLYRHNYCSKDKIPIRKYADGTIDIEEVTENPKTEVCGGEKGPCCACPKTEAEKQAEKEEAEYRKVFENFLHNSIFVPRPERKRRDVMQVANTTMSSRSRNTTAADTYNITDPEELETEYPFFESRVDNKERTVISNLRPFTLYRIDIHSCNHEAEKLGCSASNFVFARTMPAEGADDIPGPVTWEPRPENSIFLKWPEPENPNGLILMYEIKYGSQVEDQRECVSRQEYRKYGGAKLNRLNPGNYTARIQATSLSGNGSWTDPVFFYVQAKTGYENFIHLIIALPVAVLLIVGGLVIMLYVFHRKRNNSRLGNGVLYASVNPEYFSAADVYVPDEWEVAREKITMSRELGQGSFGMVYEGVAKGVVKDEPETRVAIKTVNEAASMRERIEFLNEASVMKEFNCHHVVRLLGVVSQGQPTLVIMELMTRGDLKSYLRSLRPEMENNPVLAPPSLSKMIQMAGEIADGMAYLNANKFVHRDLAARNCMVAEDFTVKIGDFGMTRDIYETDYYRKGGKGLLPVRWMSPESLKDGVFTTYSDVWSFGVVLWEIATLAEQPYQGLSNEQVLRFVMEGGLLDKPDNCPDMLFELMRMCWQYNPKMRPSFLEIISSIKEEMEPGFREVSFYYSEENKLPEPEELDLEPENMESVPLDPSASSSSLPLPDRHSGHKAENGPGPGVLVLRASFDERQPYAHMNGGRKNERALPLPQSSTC
Experimental: IGF-1R (5-20 mU diluted in 50 mM Tris pH 7.5, 0.1 mM EGTA, 1 mg/ml BSA) is assayed against a substrate peptide ([…]) in a final volume of 25.5 μl containing 50 mM Tris pH 7.5, 300 µM substrate peptide, 10 mM magnesium acetate and 0.005 mM [33P-g-ATP] (50-1000 cpm/pmole) and incubated for 30 min at room temperature. Assays are stopped by addition of 5 μl of 0.5 M (3%) orthophosphoric acid and then harvested onto P81 Unifilter plates with a wash buffer of 50 mM orthophosphoric acid.

[8] = target: MEKK1 (Homo sapiens (Human), UniProt Q13233); assay: MEKK1 kinase selectivity assay
Experimental: MEKK1 (5-20 mU diluted in 50 mM Tris pH 7.5, 0.1 mM EGTA, 0.1% 0-mercaptoethanol, 1 mg/ml BSA) is assayed against MBP in a final volume of 25.5 μl containing 50 mM Tris pH 7.5, 0.1 mM EGTA, 0.33 mg/ml MBP, 10 mM magnesium acetate and 0.02 mM [33P-γ-ATP] (50-1000 cpm/pmole) and incubated for 30 min at room temperature. Assays are stopped by addition of 5 μl of 0.5 M (3%) orthophosphoric acid and then harvested onto P81 Unifilter plates with a wash buffer of 50 mM orthophosphoric acid.

Chain of PDK1 (O15530 whole entry): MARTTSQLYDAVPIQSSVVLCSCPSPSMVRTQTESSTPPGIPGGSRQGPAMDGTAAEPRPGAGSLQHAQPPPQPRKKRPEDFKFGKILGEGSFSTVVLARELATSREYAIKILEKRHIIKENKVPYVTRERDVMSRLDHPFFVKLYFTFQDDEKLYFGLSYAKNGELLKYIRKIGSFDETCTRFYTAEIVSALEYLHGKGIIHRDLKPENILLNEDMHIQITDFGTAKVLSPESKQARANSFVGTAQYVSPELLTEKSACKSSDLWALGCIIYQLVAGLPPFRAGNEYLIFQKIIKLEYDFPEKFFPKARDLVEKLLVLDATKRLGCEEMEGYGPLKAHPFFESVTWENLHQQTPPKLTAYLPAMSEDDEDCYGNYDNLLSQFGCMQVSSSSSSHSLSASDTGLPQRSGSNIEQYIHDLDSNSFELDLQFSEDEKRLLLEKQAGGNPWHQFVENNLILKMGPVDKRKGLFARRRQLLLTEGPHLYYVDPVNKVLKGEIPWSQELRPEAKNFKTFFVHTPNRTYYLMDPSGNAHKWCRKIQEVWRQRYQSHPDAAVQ

Structure (SMILES)	percentage inhibition of PDK1 [1]	percentage inhibition of PLK1 [2]	percentage inhibition of ERK1 [3]	percentage inhibition of IRAK4 [4]	percentage inhibition of PKD1 [5]	percentage inhibition of BRSK2 [6]	percentage inhibition of IGF-1R [7]	percentage inhibition of MEKK1 [8]
c1cc2[nH]nc3c2c(n1)N(C1CCC1)CCC3 [Example 22, 6-cyclobutyl-6,7,8,9-tetrahydro-2H-1,2,5,6-tetraazabenzo[cd]azulene]	7 percentage	4 percentage	0 percentage	13 percentage	20 percentage	0 percentage	9 percentage	0 percentage
c1cc2[nH]nc3c2c(n1)N(C1CCCC1)CCC3 [Example 23, 6-cyclopentyl-6,7,8,9-tetrahydro-2H-1,2,5,6-tetraazabenzo[cd]azulene]	0 percentage	3 percentage	0 percentage	0 percentage	9 percentage	0 percentage	2 percentage	0 percentage
c1cc2[nH]nc3c2c(n1)N(C1CCOCC1)CCC3 [Example 29, 6-(tetrahydro-2H-pyran-4-yl)-6,7,8,9-tetrahydro-2H-1,2,5,6-tetraazabenzo[cd]azulene]	2 percentage	0 percentage	0 percentage	15 percentage	3 percentage	2 percentage	9 percentage	0 percentage
CN1CCC(N2Cc3ccccc3-c3n[nH]c4ccnc2c34)CC1 [Example 55]	42 percentage	28 percentage	4 percentage	9 percentage	73 percentage	50 percentage	8 percentage	5 percentage
CC(C)n1ncc2c1CN(C1CCN(C)CC1)c1nccc3[nH]nc-2c13 [Example 68]	21 percentage	21 percentage	11 percentage	14 percentage	46 percentage	31 percentage	0 percentage	0 percentage
